{
  "source": "ChEMBL document CHEMBL1125058",
  "about": "(J Med Chem, 1990)",
  "key": {"Aromatase": {"molecular_target": "T1, Aromatase (Homo sapiens, UniProt P11511)", "T1 sequence (P11511 whole entry)": "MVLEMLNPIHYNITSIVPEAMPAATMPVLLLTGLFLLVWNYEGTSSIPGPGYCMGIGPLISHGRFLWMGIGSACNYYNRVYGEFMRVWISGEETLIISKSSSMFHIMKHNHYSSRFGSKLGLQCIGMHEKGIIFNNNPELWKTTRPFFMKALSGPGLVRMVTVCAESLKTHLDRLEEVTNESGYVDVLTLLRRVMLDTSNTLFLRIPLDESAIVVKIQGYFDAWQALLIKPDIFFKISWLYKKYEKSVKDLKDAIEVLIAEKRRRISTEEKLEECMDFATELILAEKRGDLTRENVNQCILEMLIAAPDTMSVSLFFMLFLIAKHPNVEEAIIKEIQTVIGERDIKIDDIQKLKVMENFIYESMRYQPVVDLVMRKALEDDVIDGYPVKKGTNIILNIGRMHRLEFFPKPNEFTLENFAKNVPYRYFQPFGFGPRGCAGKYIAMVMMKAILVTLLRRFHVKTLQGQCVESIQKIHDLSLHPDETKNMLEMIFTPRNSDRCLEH", "description": "Inhibition of Cytochrome P450 19A1 in human placenta"}, "[1]": {"experiment": "Compound was evaluated for the spectral dissociation constant", "type": "ADME", "conditions": "read-out: Ks"}},
  "note": "pIC50, pKd: −log10 of the molar value.",
  "data": [
    {"smiles": "CCCCCCC[C@]1(c2ccncc2)CCC(=O)NC1=O", "values": [
      {"measurement": "pIC50", "setting": "Aromatase", "result": 5.49}
    ]},
    {"smiles": "CCCCCCCCN1C(=O)CCC(CC)(c2ccncc2)C1=O", "note": "(centres undefined)", "values": [
      {"measurement": "pKd", "setting": "[1]", "result": 6.29}
    ]},
    {"smiles": "CCCCCC[C@]1(c2ccncc2)CCC(=O)NC1=O", "values": [
      {"measurement": "pIC50", "setting": "Aromatase", "result": 5.44}
    ]},
    {"smiles": "CCCCC[C@]1(c2ccncc2)CCC(=O)NC1=O", "values": [
      {"measurement": "pIC50", "setting": "Aromatase", "result": 5.60}
    ]}
  ]
}
